Literature values, collected in patent US6022558A, “Transdermal preparations of oxicams” (priority 1997, dated 2000).

Assays:
[1] = single or multiple doses in patients
[2] = rats and rabbits
[3] = oral administration

Compound: CN1C(C(=O)Nc2ccccn2)=C(O)c2ccccc2S1(=O)=O [piroxicam, 4-hydroxyl-2-methyl-N-(2-pyridyl)-2H-1,2-benzo-thiazine-3-carboxamide-1,1-dioxide]
- Cmax and AUC dependence on dose [1]: proportional to the dose administered
- Pharmacokinetic linearity [1]: possessed a linear pharmacokinetic property
- Oral absorption [2]: almost completely absorbed
- Second plasma maximum [3]: shows a second maximum plasma concentration due to hepatic and intestinal recycling
